Data: PubChem BioAssay (NCI)
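Interpolation was linear, between the two tested concentrations surrounding the appropriate level; five concentrations were tested over 48 hours in 96-well plates. TGI: total growth inhibition.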

Experiments:
Assay in all cases: NCI tumour cell line growth inhibition, 48 h
786-0 renal = system: 786-0 renal
A549 NSCLC = system: A549 NSCLC
ACHN renal = system: ACHN renal
CAKI-1 renal = system: CAKI-1 renal
DLD-1 colon = system: DLD-1 colon
DMS 273 small cell lung = system: DMS 273 small cell lung
EKVX NSCLC = system: EKVX NSCLC
HCC-2998 colon = system: HCC-2998 colon
HCT-116 colon = system: HCT-116 colon
HCT-15 colon = system: HCT-15 colon
HOP-62 NSCLC = system: HOP-62 NSCLC
HOP-92 NSCLC = system: HOP-92 NSCLC
HT29 colon = system: HT29 colon
IGROV1 ovarian = system: IGROV1 ovarian
KM12 colon = system: KM12 colon
LOX IMVI melanoma = system: LOX IMVI melanoma
LXFL 529 NSCLC = system: LXFL 529 NSCLC
M14 melanoma = system: M14 melanoma
M19-MEL melanoma = system: M19-MEL melanoma
NCI-H23 lung = system: NCI-H23 lung
NCI-H460 lung = system: NCI-H460 lung
NCI-H522 lung = system: NCI-H522 lung
OVCAR-3 ovarian = system: OVCAR-3 ovarian
OVCAR-4 ovarian = system: OVCAR-4 ovarian
OVCAR-8 ovarian = system: OVCAR-8 ovarian
SF-268 CNS = system: SF-268 CNS
SF-295 CNS = system: SF-295 CNS
SF-539 CNS = system: SF-539 CNS
SK-MEL-2 melanoma = system: SK-MEL-2 melanoma
SK-MEL-28 melanoma = system: SK-MEL-28 melanoma
SK-MEL-5 melanoma = system: SK-MEL-5 melanoma
SN12C renal = system: SN12C renal
SNB-19 CNS = system: SNB-19 CNS
SNB-78 CNS = system: SNB-78 CNS
SW-620 colon = system: SW-620 colon
TK-10 renal = system: TK-10 renal
U251 CNS = system: U251 CNS
UACC-257 melanoma = system: UACC-257 melanoma
UACC-62 melanoma = system: UACC-62 melanoma
UO-31 renal = system: UO-31 renal

Which TGI (786-0 renal) does the source give for `Cc1ccc(C(=O)Nc2ccccc2)cc1N=NN(C)C` here?
Its TGI is 44 µM.

What about the TGI (A549 NSCLC) of the same molecule?
The TGI was > 100 µM.

What about the TGI (ACHN renal) of the same molecule?
The TGI was > 100 µM.

And the TGI (CAKI-1 renal)?
Its TGI is > 100 µM.

And the TGI (DLD-1 colon)?
Its TGI is > 100 µM.

What about the TGI (DMS 273 small cell lung) of the same molecule?
Its TGI is > 100 µM.

What about the TGI (EKVX NSCLC) of the same molecule?
The TGI was > 100 µM.

What about the TGI (HCC-2998 colon) of the same molecule?
The TGI was > 100 µM.

What about the TGI (HCT-116 colon) of the same molecule?
Its TGI is > 100 µM.

What about the TGI (HCT-15 colon) of the same molecule?
The TGI was > 100 µM.

And the TGI (HOP-62 NSCLC)?
Its TGI is > 100 µM.

And the TGI (HOP-92 NSCLC)?
Its TGI is > 100 µM.

What about the TGI (HT29 colon) of the same molecule?
Its TGI is > 100 µM.

And the TGI (IGROV1 ovarian)?
The TGI was > 100 µM.

And the TGI (KM12 colon)?
The TGI was > 100 µM.

What about the TGI (LOX IMVI melanoma) of the same molecule?
The TGI was > 100 µM.

What about the TGI (LXFL 529 NSCLC) of the same molecule?
The TGI was > 100 µM.

And the TGI (M14 melanoma)?
Its TGI is > 100 µM.

What about the TGI (M19-MEL melanoma) of the same molecule?
Its TGI is > 100 µM.

What about the TGI (NCI-H23 lung) of the same molecule?
The TGI was > 100 µM.

What about the TGI (NCI-H460 lung) of the same molecule?
Its TGI is > 100 µM.

What about the TGI (NCI-H522 lung) of the same molecule?
Its TGI is > 100 µM.

What about the TGI (OVCAR-3 ovarian) of the same molecule?
The TGI was > 100 µM.

And the TGI (OVCAR-4 ovarian)?
The TGI was > 100 µM.

What about the TGI (OVCAR-8 ovarian) of the same molecule?
The TGI was > 100 µM.

And the TGI (SF-268 CNS)?
Its TGI is > 100 µM.

And the TGI (SF-295 CNS)?
The TGI was > 100 µM.

What about the TGI (SF-539 CNS) of the same molecule?
The TGI was > 100 µM.

What about the TGI (SK-MEL-2 melanoma) of the same molecule?
Its TGI is > 100 µM.

What about the TGI (SK-MEL-28 melanoma) of the same molecule?
Its TGI is > 100 µM.

And the TGI (SK-MEL-5 melanoma)?
The TGI was > 100 µM.

What about the TGI (SN12C renal) of the same molecule?
Its TGI is > 100 µM.

And the TGI (SNB-19 CNS)?
Its TGI is > 100 µM.

What about the TGI (SNB-78 CNS) of the same molecule?
Its TGI is > 100 µM.

And the TGI (SW-620 colon)?
The TGI was > 100 µM.

And the TGI (TK-10 renal)?
The TGI was > 100 µM.

What about the TGI (U251 CNS) of the same molecule?
The TGI was > 100 µM.

What about the TGI (UACC-257 melanoma) of the same molecule?
The TGI was > 100 µM.

What about the TGI (UACC-62 melanoma) of the same molecule?
Its TGI is > 100 µM.

What about the TGI (UO-31 renal) of the same molecule?
The TGI was > 100 µM.
